# Source: patent publication US7049437B2, “Synthetic process and crystal form of condensed imidazopyridine derivatives” (Shionogi & Co., Ltd., priority 2000, dated 2006)
# Counter-ions that a name gives are not always drawn.
# Key:
# [1] = Stability to heat (crystals kept sealed at 40° C., relative humidity 75%); format: physicochemical; conditions: relative humidity of 75%, 6 months, sealed glass container, phosphate monohydrate
# Procedure: Prism crystals and needle crystals of Compound (Ia) were used for samples. About 25 mg of each crystal was put in a small glass container with polyethylene cap. Containers were capped, sealed with PARAFILM and kept at 40° C., relative humidity of 75% for 6 months.
# [2] = Stability to light (fluorescent lamp exposure; appearance and HPLC remaining rate); format: physicochemical; conditions: for appearance / remaining rate (%) / appearance change under light exposure: phosphate monohydrate; for remaining rate (%): HPLC content vs reference kept at −20° C.; for appearance change under light exposure: summary of Table 2
# Procedure: In the following Experiments, contents of Compound (I) were determined by HPLC under the following conditions. • Device: WATERS 510, 481, 712 WISP, 741, FD20A or WATERS 510, 486, 712 WISP, 741, FD20A • Column: YMC-packed column AM-302 S-5 120A ODS (4.6 mm φ×150 mm) • Column temperature: room temperature • Mobile phase: methanol/water/TFA=200/800/1 (v/v) • Flow rate: 1.0 ml/min • Wave length: 230 nm • Concentration: 5–85 μg/ml • Injection Volume: 15 μl
# After samples were prepared in the same manner of Experiment 1 and sealed, they were kept under 1800 Lux exposure (16 hours exposure per day of a fluorescent lamp, 28800 Lux*hr/day) or under 10000 Lux exposure (continuous exposure of a fluorescent lamp, 240000 Lux*hr/day, average temperature 30±3° C.). As a standard reference sample, each of crystals was put in a sealed container and kept at −20° C. The content of crystals were determined by the absolute calibration curve method using HPLC under the above conditions.
SMILES,melting point [°C],appearance transition [1],"appearance ([2]; 1800 Lux (16 hours exposure per day), 1 month)","remaining rate (%) ([2]; 1800 Lux, 1 month)","remaining rate (%) ([2]; 1800 Lux, 2 months)","remaining rate (%) ([2]; 1800 Lux, 3 months)","remaining rate (%) ([2]; 1800 Lux, 4 months)","appearance ([2]; 10000 Lux (continuous exposure, 30±3° C.), 1 week)","appearance ([2]; 10000 Lux (continuous exposure, 30±3° C.), 3 weeks)","remaining rate (%) ([2]; 10000 Lux, 1 week)","remaining rate (%) ([2]; 10000 Lux, 2 weeks)","remaining rate (%) ([2]; 10000 Lux, 3 weeks)",remaining rate under light exposure ([2]; after 3 months),appearance change under light exposure [2],"appearance ([2]; 1800 Lux (16 hours exposure per day), 3 months)","appearance ([2]; 10000 Lux (continuous exposure, 30±3° C.), 2 weeks)"
"c1cc(-c2nc3c4c(ncc3[nH]2)CCOC4)no1 (as salt: phosphate) (hydrate or solvate) [Needle crystals, 2-(3-isoxazolyl)-3,6,7,9-tetrahydroimidazo[4,5-d]pyrano[4,3-b]pyridine phosphate monohydrate]",234 to 236,,,,,,,,,,,,,,,
"c1cc(-c2nc3c4c(ncc3[nH]2)CCOC4)no1 (hydrate or solvate) [Example 1, 2-(3-isoxazolyl)-3,6,7,9-tetrahydroimidazo[4,5-d]pyrano[4,3-b]pyridine]",> 300,,,,,,,,,,,,,,,
"c1cc(-c2nc3c4c(ncc3[nH]2)CCOC4)no1 [Needle crystals, 2-(3-isoxazolyl)-3,6,7,9-tetrahydroimidazo[4,5-d]pyrano[4,3-b]pyridine phosphate monohydrate]",,changed its color to pale yellow,± or +,98.6,98.3,96.9,97.0,± or +,+ or ++,99.3,98.0,97.4,decreased,changed the color to yellow,,
"c1cc(-c2nc3c4c(ncc3[nH]2)CCOC4)no1 [Prism crystals, 2-(3-isoxazolyl)-3,6,7,9-tetrahydroimidazo[4,5-d]pyrano[4,3-b]pyridine phosphate monohydrate]",,not observed appearance transition,,100.0,99.9,100.1,100.1,,,99.5,99.7,99.2,,scarcely changed appearance,− or ±,± or +
